The values below come from patent US5502242A, “Propiolate ester compound an acaricide containing the same as an active ingredient and an acaricidal method” (Sumitomo Chemical Company, Limited, priority 1993, dated 1996).

Assay type in all cases: in vivo
In test [1] the test system is Tyrophagus putrescentiae. Description: Fumigating activity against Tyrophagus putrescentiae (heated porous ceramic plate in peat grady chamber, Biological Test Example 3). Particulars: 24 h, 55 mg/m^3, ceramic plate heated at 175° C., after twenty-four hours. The text has this:
A piece of filter paper (diameter: 4 cm) was placed in an aluminum plate and an adhesive substance was applied on the circumference of the filter paper for preventing escape. Fifty to a hundred heads of mites (Tyrophagus putrescentiae) were put with little feed on the filter paper. Three sets of such filter paper with mites were placed on three corners (approximately 30 cm from the wall) in a floor of a peat grady chamber (1.8 m ×1.8 m ×1.8 m). A porous ceramic plate (4 cm ×4 cm ×1.2 cm) impregnated with an acetone solution of the present compound (concentration: 55 mg/m^3) was heated at 175° C. with an electric heater placed on the center of the floor of the chamber. After twenty-four hours, the mortality was examined.

Test [2] has as its system Tyrophagus putrescentiae. Kind of test: Activity against Tyrophagus putrescentiae (treated filter paper, Biological Test Example 1). Particulars: 24 h, 0.8 g/m^2 on filter paper, after one day. The text has this:
(§1) A piece of filter paper (diameter: 4 cm) was impregnated uniformly with an acetone solution of the present compound so that the amount of the impregnated compound was 0.8 g/m^2 after being air-dried. Approximately twenty heads of mites (Tyrophagus putrescentiae, Dermatophagoides farinae Hughes and Dermatophagoides pteronyssinuis) were put on the surface of the treated filter paper. An adhesive substance was applied on the circumference of the filter paper for preventing escape. After one day, the mortality was examined. The results for Tyrophagus putrescentiae, Dermatophagoides farinae Hughes and Dermatophagoides pteronyssinus are shown in Table 3, Table 4, and Table 5, respectively.

Test [3] relates to Dermatophagoides pteronyssinus. Description: Activity against Dermatophagoides pteronyssinus (treated filter paper, Biological Test Example 1). Conditions: 24 h, 0.8 g/m^2 on filter paper, after one day.
Source text: as §1

In test [4] the test system is Dermatophagoides farinae Hughes. Kind of test: Activity against Dermatophagoides farinae Hughes (treated filter paper, Biological Test Example 1). Particulars: 24 h, 0.8 g/m^2 on filter paper, after one day.
Source text: as §1

Test [5] has as its system Dermatophagoides pteronyssinus. Kind of test: Residual activity against Dermatophagoides pteronyssinus (treated filter paper, Biological Test Example 2). Particulars: 24 h, 0.8 g/m^2 on filter paper, mites put on seven days after treatment, mortality after one day. The text has this:
A piece of filter paper (diameter: 4 cm) was impregnated uniformly with an acetone solution of the compound sample so that the amount of the compound was 0.8 g/m^2 after being air-dried. After seven days, approximately twenty heads of mites (Dermatophagoides pteronyssinus) were put on the surface of the treated filter paper. An adhesive substance was applied on the circumference of the filter paper for preventing escape. After one day, the mortality was examined.

For `C#CC(=O)OCCCCCc1ccccc1` [Compound 1, 5-phenylpentyl propiolate], the mortality (in general, the share of the test organisms that died) at 55 mg/m3 in the test on Tyrophagus putrescentiae [1] is 76%. Further, the mortality at 0.8 g/m2 in the test with Tyrophagus putrescentiae [2] is 100%; in test [3] it was 100%; in test [4] it was 100%; in test [5] it was 95%.

`C#CC(=O)OCCCCCCc1ccccc1` [Compound 2, 6-phenylhexyl propiolate] displayed a mortality at 55 mg/m3 in the test on Tyrophagus putrescentiae [1] of 73%. The mortality at 0.8 g/m2 (with Tyrophagus putrescentiae [2]; in test [3]; in test [4]; in test [5]) was 100% throughout.

Compound `C#CC(=O)OCCCCCCCc1ccccc1` [Compound 3, 7-phenylheptyl propiolate] displayed a mortality at 55 mg/m3 with Tyrophagus putrescentiae [1] of 96%. In addition, the mortality at 0.8 g/m2 (with Tyrophagus putrescentiae [2]; in test [3]; in test [4]; in test [5]) was 100% each time.

Regarding `C#CC(=O)OCCCCCCCCc1ccccc1` [Compound 4], the mortality at 0.8 g/m2 (in the test on Tyrophagus putrescentiae [2]; in test [3]; in test [4]; in test [5]) was 100% each time.

For `C#CC(=O)OCCCCCCCCCc1ccccc1` [Compound 5], the mortality at 0.8 g/m2 (with Tyrophagus putrescentiae [2]; in test [3]; in test [4]; in test [5]) was 100% each time.

Regarding `C#CC(=O)OCCCOc1ccccc1` [Compound 6], the mortality at 0.8 g/m2 (in the test with Tyrophagus putrescentiae [2]; in test [3]; in test [4]; in test [5]) was 100% in each case.

As for `C#CC(=O)OCCCCOc1ccccc1` [Compound 7], the mortality at 0.8 g/m2 (in the test on Tyrophagus putrescentiae [2]; in test [3]; in test [4]; in test [5]) was 100% throughout.

With `C#CC(=O)OCCCCCOc1ccccc1` [Compound 8], the mortality at 0.8 g/m2 (in the test on Tyrophagus putrescentiae [2]; in test [3]; in test [4]; in test [5]) was 100% throughout.

Take `C#CC(=O)OCCCOc1ccc(C)cc1C` [Compound 9]: the mortality at 0.8 g/m2 (with Tyrophagus putrescentiae [2]; in test [3]; in test [4]; in test [5]) was 100% throughout.

In the case of `C#CC(=O)OCCCCOc1ccccc1C` [Compound 10, 4-(2-methylphenoxy)butyl propiolate], the mortality at 0.8 g/m2 (in the test on Tyrophagus putrescentiae [2]; in test [3]; in test [4]; in test [5]) was 100% in each case.

The compound `C#CC(=O)OCCCCOc1ccc(C)cc1` [Compound 11, 4-(4-methylphenoxy)butyl propiolate] returned a mortality at 55 mg/m3 with Tyrophagus putrescentiae [1] of 79%. The mortality at 0.8 g/m2 (with Tyrophagus putrescentiae [2]; in test [3]; in test [4]; in test [5]) was 100% throughout.

As for `C#CC(=O)OCCCCOc1ccc(C)cc1C` [Compound 12], the mortality at 0.8 g/m2 (in the test with Tyrophagus putrescentiae [2]; in test [3]; in test [4]; in test [5]) was 100% in each case.

With `C#CC(=O)OCCCCOc1c(C)cccc1C` [Compound 13], the mortality at 0.8 g/m2 amounted to 100% in the test on Tyrophagus putrescentiae [2], 100% in test [3], 100% in test [4] and 92% in test [5].

Consider `C#CC(=O)OCCCCCOc1c(C)cccc1C` [Compound 14], for which the mortality at 0.8 g/m2 (with Tyrophagus putrescentiae [2]; in test [3]; in test [4]; in test [5]) was 100% in each case.

On to `C#CC(=O)OCCCCOc1c(C(C)C)cccc1C(C)C` [Compound 15], for which the mortality at 0.8 g/m2 with Tyrophagus putrescentiae [2] worked out at 100%; in test [3] it was 100%; in test [4] it was 100%; in test [5], 95%.

Turning to `C#CC(=O)OCCOCc1ccccc1` [Compound 16, 2-benzyloxyethyl propiolate], the mortality at 0.8 g/m2 with Tyrophagus putrescentiae [2] turned out to be 100%; in test [3] it was 100%; in test [4], 100%; in test [5], 83%.

Turning to `C#CC(=O)OCCCOCc1ccccc1` [Compound 17], the mortality at 0.8 g/m2 (in the test with Tyrophagus putrescentiae [2]; in test [3]; in test [4]; in test [5]) was 100% in each case.

In the case of `C#CC(=O)OCCOCc1ccc(C)cc1` [Compound 18], the mortality at 0.8 g/m2 (with Tyrophagus putrescentiae [2]; in test [3]; in test [4]; in test [5]) was 100% throughout.

Turning to `C#CC(=O)OCCCCCCOc1ccccc1` [Compound 19], the mortality at 0.8 g/m2 (with Tyrophagus putrescentiae [2]; in test [4]; in test [5]) was 100% in each case.

For `C#CC(=O)OCCCOc1ccc(CC)cc1` [Compound 20], the mortality at 0.8 g/m2 (in the test on Tyrophagus putrescentiae [2]; in test [4]; in test [5]) was 100% in each case.

Take `C#CC(=O)OCCCCCOc1ccc(C)cc1` [Compound 21]: the mortality at 0.8 g/m2 (in the test with Tyrophagus putrescentiae [2]; in test [4]; in test [5]) was 100% each time.

Consider `C#CC(=O)OCCCCOc1ccc(CC)cc1` [Compound 22], for which the mortality at 0.8 g/m2 in the test on Tyrophagus putrescentiae [2] was determined as 96%; in test [4], 100%; in test [5] it was 100%.

For `C#CC(=O)OCC(C)COc1ccccc1` (centres unmarked) [Compound 23], the mortality at 0.8 g/m2 (in the test with Tyrophagus putrescentiae [2]; in test [4]; in test [5]) was 100% in each case.

Regarding `C#CC(=O)OCC(C)COc1ccc(C)cc1` (centres unmarked) [Compound 24], the mortality at 0.8 g/m2 (in the test on Tyrophagus putrescentiae [2]; in test [4]; in test [5]) was 100% throughout.

For `C#CC(=O)OCCC(C)COc1ccccc1` (centres unmarked) [Compound 25], the mortality at 0.8 g/m2 (in the test on Tyrophagus putrescentiae [2]; in test [4]; in test [5]) was 100% in each case.

Regarding `C#CC(=O)OCCC(C)COc1ccc(C)cc1` (centres unmarked) [Compound 26], the mortality at 0.8 g/m2 in the test with Tyrophagus putrescentiae [2] amounted to 100%; in test [4] it was 96%; in test [5], 94%.

Regarding `C#CC(=O)OCCCOc1c(C)cccc1C` [Compound 27], the results for the mortality at 0.8 g/m2 (with Tyrophagus putrescentiae [2]; in test [4]; in test [5]) were 100%, 86% and 100%, respectively.

With `C#CC(=O)OCCOCc1ccc(CC)cc1` [Compound 28], the mortality at 0.8 g/m2 turned out to be 100% with Tyrophagus putrescentiae [2], 100% in test [4] and 97% in test [5].

On to `C#CC(=O)OCC(C)OCc1ccccc1` (centres unmarked) [Compound 29], for which the mortality at 0.8 g/m2 in the test on Tyrophagus putrescentiae [2] came out at 100%; in test [4], 100%; in test [5], 82%.

In the test on Tyrophagus putrescentiae [1], `O=C(Oc1ccccc1)c1ccccc1O` [Phenyl salicylate, reference compound] had a mortality at 55 mg/m3 of 28%.
